How the values were obtained:
HaCaT cells = assay: Cell state (pyroptosis) of OligodA-T transfected HaCaT cells under microscope; type: cell-based; settings: 10 uM, microscope 100×
[1] = test system: AIM2 downstream protein in HaCat cells; assay: AIM2 downstream protein expression in HaCaT cells (Western Blot, ELISA); type: cell-based; settings: 10 uM
[2] = test system: TCRγ/CD3^+RORγt cells in the lymphocytes of mouse skin; assay: Flow cytometry of skin lymphocytes of IMQ mice; type: in vivo, C57/BL6 mice; settings: 5 mg/kg, smeared on skin
Procedure: (§1) In the embodiment of the disclosure, dimethyl sulfoxide (DMSO) is used to dissolve T6S1683 powder, the powder is weighed according to different dosage, then diluted with β-cyclodextrin, and a final concentration of DMSO shall not exceed 5%. The dose gradients of T6S1683 set are 0 mg/kg, 1 mg/kg, 2.5 mg/kg, 5 mg/kg and 10 mg/kg respectively. Each mouse is calculated as 20 grams (g), and 0 mg/kg, 1 mg/kg, 2.5 mg/kg, 5 mg/kg and 10 mg/kg of T6S1683 are administered respective mice every day.
(§2) Seven-week-old C57/BL6 mice are selected, fed and modeled in a […] (SPF) environment. The experimental groups are as follows. […]
(§3) Six mice in each group above, and the mice are shaved back hair to make an exposed skin reach 4 square centimeters. […] The mouse skins are scored every day, the mice are sacrificed on Day 6, and skin tissue is taken for a series of tests.
Next, skin lymphocytes of the mice in each group (proportion of TCRγ/CD3^+RORγt cells in the lymphocytes of mouse skin, which are the main effector cells mediated by AIM2 pathway in psoriasis and can secrete a large amount of IL-17 cytokines to aggravate psoriasis) are detected by flow cytometry.

human AIM2 protein = target: T1, human AIM2 protein (Homo sapiens, UniProt O14862); assay: Affinity by SPR (Biacore, CM5 chip amino-coupling), human AIM2; settings: human full-length AIM2 protein, read-out: binding constant KD
T1 construct: a human full-length AIM2 protein is expressed and purified firstly by pET28A vector; made in house
T1 sequence (O14862 1-343): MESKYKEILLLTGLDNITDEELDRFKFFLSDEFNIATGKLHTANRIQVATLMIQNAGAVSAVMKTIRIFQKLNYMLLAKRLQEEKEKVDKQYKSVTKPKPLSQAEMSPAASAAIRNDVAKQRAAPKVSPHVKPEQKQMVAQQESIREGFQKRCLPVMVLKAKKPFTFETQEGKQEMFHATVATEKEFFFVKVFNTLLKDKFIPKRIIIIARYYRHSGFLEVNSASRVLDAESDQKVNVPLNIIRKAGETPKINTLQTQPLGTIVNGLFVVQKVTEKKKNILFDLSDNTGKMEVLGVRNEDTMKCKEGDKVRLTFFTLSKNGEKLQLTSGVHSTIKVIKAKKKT
Procedure: In the embodiment of the disclosure, the affinity between T6S1683 and human AIM2 protein is detected. Specifically, a human full-length AIM2 protein is expressed and purified firstly by pET28A vector, and then the affinity is determined by CM5 chip amino-coupling method through a surface-plasmon resonance (SPR) method of Biacore.

[3] = test system: IL-1β mRNA in HaCaT cells; assay: Real-time fluorescence PCR of IL-1β mRNA in HaCaT cells stimulated by OligodA-T; type: cell-based; settings: 10 uM, 24 hours
Procedure: The protective ability of 44 compounds screened above against cell pyroptosis of HaCaT cells stimulated by OligodA-T is evaluated by the real-time fluorescent quantitative polymerase chain reaction (PCR) detection of IL-1β mRNA in the stimulated cells. […] Positive control (PC) and negative control (NC) are set in the experimental group. An inclusion of Lip3000 (Lipofectamine™ 3000 Transfection Reagent) and OligodA-T (OligodA-T: Lip3000:P3000=1:1:25, a concentration of OligodA-T is 1 microgram per […] abbreviated as ug/mL) is used to transfect HaCat cells. […] Each experimental group is incubated in a cell incubator containing 5% CO2 for 24 hours at 37° C., and the cells are collected for real-time fluorescence PCR detection.
• (1) A positive control (PC), a negative control (NC) and respective treatment groups are set. […] The HaCat cells are co-transfected with inclusions of Lip3000-OligodA-T at gradient doses (0.1 uM, 1 uM, 5 uM, 10 uM and 25 uM) of T6S1683 in the respective treatment groups. • (2) The positive control (PC), the negative control (NC) and the respective treatment groups are incubated in a cell incubator containing 5% CO2 at 37° C. for 24 hours, and the cells are collected for real-time fluorescence PCR detection to observe the effects of different doses of inhibitors on the activation of AIM2 pathway in the HaCaT cells.

[4] = test system: IL-1β gene expression in the mouse skin; assay: Transcription levels of AIM2 pathway genes in skin of IMQ mice; type: in vivo, C57/BL6 mice; settings: 5 mg/kg, smeared on skin
Procedure: as §1, §2, §3

mouse AIM2 protein = target: T2, mouse AIM2 protein (Mus musculus, UniProt Q91VJ1); assay: Affinity by SPR (Biacore, CM5 chip amino coupling), mouse AIM2; settings: mouse full-length AIM2 protein, read-out: binding constant KD
T2 construct: a mouse full-length AIM2 protein is expressed and purified firstly by pET28A vector; made in house
T2 sequence (Q91VJ1 1-354): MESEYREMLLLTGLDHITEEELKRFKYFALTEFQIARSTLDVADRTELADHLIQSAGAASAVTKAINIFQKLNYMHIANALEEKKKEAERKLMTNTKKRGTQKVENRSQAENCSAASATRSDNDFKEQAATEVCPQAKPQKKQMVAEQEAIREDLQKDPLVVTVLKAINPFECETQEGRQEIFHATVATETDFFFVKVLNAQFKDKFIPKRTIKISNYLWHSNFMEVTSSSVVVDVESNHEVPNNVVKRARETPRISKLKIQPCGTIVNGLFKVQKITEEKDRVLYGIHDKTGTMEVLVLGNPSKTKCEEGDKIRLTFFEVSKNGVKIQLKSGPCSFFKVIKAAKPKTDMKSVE
Procedure: In the embodiment of the disclosure, the affinity between T6S1683 and mouse AIM2 protein is detected. Specifically, a mouse full-length AIM2 protein is expressed and purified firstly by pET28A vector, and then the affinity is determined by CM5 chip amino coupling method by the SPR method of Biacore.

IMQ mice = assay: IMQ psoriasis mouse model: PASI scores, skin and pathological phenotypes; type: in vivo, C57/BL6 mice
Procedure: as §1
Seven-week-old C57/BL6 mice are selected, fed and modeled in a […] (SPF) environment. The experimental groups are as follows. (a) mouse skin smeared with IMQ and 0 mg/kg of T6S1683; (b) mouse skin smeared with IMQ and 1 mg/kg of T6S1683; (c) mouse skin smeared with IMQ and 2.5 mg/kg of T6S1683; (d) mouse skin smeared with IMQ and 5 mg/kg of T6S1683; (e) mouse skin smeared with IMQ and 10 mg/kg of T6S1683; (f) mouse skin smeared with Vaseline and 0 mg/kg of T6S1683; (g) mouse skin smeared with Vaseline and 1 mg/kg of T6S1683; (h) mouse skin smeared with Vaseline and 2.5 mg/kg of T6S1683; (i) mouse skin smeared with Vaseline and 5 mg/kg of T6S1683; and (j) mouse skin smeared with Vaseline and 10 mg/kg of T6S1683. (Note: the daily dosage of IMQ in groups (a), (b), (c), (d) and (e) is 62.5 mg/mouse, and the daily dosage of Vaseline in groups (f), (g), (h), (i) and (j) is 62.5 mg/mouse.)
Six mice in each group above, and the mice are shaved back hair to make an exposed skin reach 4 square centimeters. A start date of the experiment is set as Day 0 and an end date is set as Day 6. From Day 0 to Day 5, 500 μL medicine solution is applied daily and evenly smeared mouse skin to absorb, with 500 uL applied in the morning at a dose of 150 uL, at noon at 200 uL, and at night at 150 uL. […] The mouse skins are scored every day, the mice are sacrificed on Day 6, and skin tissue is taken for a series of tests. […]

Kd (human AIM2 protein): 1.56 µM
Kd (mouse AIM2 protein): 5.12 µM
Compound: COc1cc(/C=C/C(=O)CC(=O)/C=C/c2ccc(O)cc2)ccc1O [T6S1683, 1,6-heptadiene-3,5-dione,1-(4-hydroxy-3-methoxyphenyl)-7-(4-hydroxyphenyl)-,(1E, 6E)-]
cell state (HaCaT cells): close to that of the NC group
expression of AIM2 downstream protein (Western Blot) [1]: slightly decreases
secretion of IL-1β (ELISA) [1]: inhibitory effect
proportion of TCRγ/CD3^+RORγt compared with IMQ mice without T6S1683 [2]: significantly lower
IL-β transcription levels compared to the PC group ([3]; among 5 dose gradients (0.1, 1, 5, 10, 25 uM)): reduced IL-β transcription levels in the HaCat cells the most
inhibitory effect on IL-1β mRNA compared with the positive control ([3]; screening of 44 compounds, OligodA-T 1 ug/mL): most significant inhibitory effect
IL-1β gene expression level in mouse skin [4]: significantly down-regulated
effect on inflammatory phenotype of IMQ mice (IMQ mice; 1 mg/kg, smeared on skin): no difference
reduction effect on inflammatory phenotype of IMQ mice (IMQ mice; 5 mg/kg, smeared on skin): the most significant
inflammatory phenotype of IMQ mice (IMQ mice; three doses, smeared on skin daily Day 0 to Day 5): reduced the inflammatory phenotype of IMQ mice to varying degrees

Reference: patent publication US12343318B2, “Use of compound or medicinal derivative thereof in inhibiting AIM2 protein activity” (Liangdan Sun, priority 2023, dated 2025)
